From PubChem BioAssay AID2060612 (Molecular Pharmacology Branch, DTP, NCI, 2025)

System: 565232-114-T-J1-PDC complex spheroid viability
Assay: Anticancer human tumor 565232-114-T-J1-PDC patient-derived bladder carcinoma cell line growth inhibition [CLK]
Conditions: for IC50: curve of first compound; for viability, T/C: stronger effect = lower value
Method in brief: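 Multi-cell-type spheroids combined patient-derived tumor cells with HUVEC endothelial cells and human mesenchymal stem cells. Paired agents were dosed in half-log steps down from about clinical Cmax, or from 10 microM where Cmax was unknown.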

[1] = second compound 0.0316 µM, first compound 0.0316 µM
[2] = second compound 0.0316 µM, first compound 0.1 µM
[3] = second compound 0.0316 µM, first compound 0.316 µM
[4] = second compound 0.0316 µM, first compound 1 µM
[5] = second compound 0.0316 µM, first compound 3.16 µM
[6] = second compound 0.0316 µM, first compound 10 µM
[7] = second compound 0.1 µM, first compound 0.0316 µM
[8] = second compound 0.1 µM, first compound 0.1 µM
[9] = second compound 0.1 µM, first compound 0.316 µM
[10] = second compound 0.1 µM, first compound 1 µM
[11] = second compound 0.1 µM, first compound 3.16 µM
[12] = second compound 0.1 µM, first compound 10 µM
[13] = second compound 0.316 µM, first compound 0.0316 µM
[14] = second compound 0.316 µM, first compound 0.1 µM
[15] = second compound 0.316 µM, first compound 0.316 µM
[16] = second compound 0.316 µM, first compound 1 µM
[17] = second compound 0.316 µM, first compound 3.16 µM
[18] = second compound 0.316 µM, first compound 10 µM
[19] = second compound 1 µM, first compound 0.0316 µM
[20] = second compound 1 µM, first compound 0.1 µM
[21] = second compound 1 µM, first compound 0.316 µM
[22] = second compound 1 µM, first compound 1 µM
[23] = second compound 1 µM, first compound 3.16 µM
[24] = second compound 1 µM, first compound 10 µM
[25] = second compound 3.16 µM, first compound 0.0316 µM
[26] = second compound 3.16 µM, first compound 0.1 µM
[27] = second compound 3.16 µM, first compound 0.316 µM
[28] = second compound 3.16 µM, first compound 1 µM
[29] = second compound 3.16 µM, first compound 3.16 µM
[30] = second compound 3.16 µM, first compound 10 µM
[31] = second compound 10 µM, first compound 0.0316 µM
[32] = second compound 10 µM, first compound 0.1 µM
[33] = second compound 10 µM, first compound 0.316 µM
[34] = second compound 10 µM, first compound 1 µM
[35] = second compound 10 µM, first compound 3.16 µM
[36] = second compound 10 µM, first compound 10 µM
[37] = second compound 0.0316 µM, first compound 0.00316 µM
[38] = second compound 0.0316 µM, first compound 0.01 µM
[39] = second compound 0.1 µM, first compound 0.00316 µM
[40] = second compound 0.1 µM, first compound 0.01 µM
[41] = second compound 0.316 µM, first compound 0.00316 µM
[42] = second compound 0.316 µM, first compound 0.01 µM
[43] = second compound 1 µM, first compound 0.00316 µM
[44] = second compound 1 µM, first compound 0.01 µM
[45] = second compound 3.16 µM, first compound 0.00316 µM
[46] = second compound 3.16 µM, first compound 0.01 µM
[47] = second compound 10 µM, first compound 0.00316 µM
[48] = second compound 10 µM, first compound 0.01 µM
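Further: spheroids exposed to compounds for 7 days before readout.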
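Wherever viability, T/C is given: 100% = DMSO vehicle wells with luminescence normalized to vehicle control.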

CC(=O)O[C@H]1C(=O)[C@@]2(C)[C@H]([C@H](OC(=O)c3ccccc3)[C@]3(O)C[C@H](OC(=O)[C@H](O)[C@@H](NC(=O)c4ccccc4)c4ccccc4)C(C)=C1C3(C)C)[C@]1(OC(C)=O)CO[C@@H]1C[C@@H]2O + CN1CCN(c2cc(C(=O)Nc3cc4cc(-c5cnn(C)c5)ccc4cn3)ccn2)CC1
IC50 (second compound 0.0316 µM): < 0.0316 µM
IC50 (second compound 0.1 µM): < 0.0316 µM
IC50 (second compound 0.316 µM): < 0.0316 µM
IC50 (second compound 1 µM): < 0.0316 µM
IC50 (second compound 3.16 µM): < 0.0316 µM
IC50 (second compound 10 µM): < 0.0316 µM
viability, T/C [1]: 33.2%
viability, T/C [2]: 17.3%
viability, T/C [3]: 18.3%
viability, T/C [4]: 16.5%
viability, T/C [5]: 21.1%
viability, T/C [6]: 20.4%
viability, T/C [7]: 25.3%
viability, T/C [8]: 23.1%
viability, T/C [9]: 20.2%
viability, T/C [10]: 16.3%
viability, T/C [11]: 17%
viability, T/C [12]: 22.6%
viability, T/C [13]: 7.34%
viability, T/C [14]: 11.6%
viability, T/C [15]: 13.5%
viability, T/C [16]: 12.6%
viability, T/C [17]: 13.7%
viability, T/C [18]: 14.9%
viability, T/C [19]: 1.4%
viability, T/C [20]: 0.18%
viability, T/C [21]: 0.18%
viability, T/C [22]: 0.13%
viability, T/C [23]: 0.16%
viability, T/C [24]: 0.95%
viability, T/C [25]: 0.15%
viability, T/C [26]: 0.19%
viability, T/C [27]: 0.17%
viability, T/C [28]: 1.81%
viability, T/C [29]: 0.95%
viability, T/C [30]: 3.05%
viability, T/C [31]: 0.18%
viability, T/C [32]: 0.55%
viability, T/C [33]: 2.34%
viability, T/C [34]: 0.22%
viability, T/C [35]: 1.4%
viability, T/C [36]: 0.16%

CCc1c2c(nc3ccc(O)cc13)-c1cc3c(c(=O)n1C2)COC(=O)[C@]3(O)CC + CN1CCN(c2cc(C(=O)Nc3cc4cc(-c5cnn(C)c5)ccc4cn3)ccn2)CC1
IC50 (second compound 0.0316 µM): 0.036 µM
IC50 (second compound 0.1 µM): 0.0139 µM
IC50 (second compound 0.316 µM): < 0.00316 µM
IC50 (second compound 1 µM): < 0.00316 µM
IC50 (second compound 3.16 µM): < 0.00316 µM
IC50 (second compound 10 µM): < 0.00316 µM
viability, T/C [37]: 96.6%
viability, T/C [38]: 61.8%
viability, T/C [1]: 54.6%
viability, T/C [2]: 38.5%
viability, T/C [3]: 16.3%
viability, T/C [4]: 5.15%
viability, T/C [39]: 113%
viability, T/C [40]: 48.3%
viability, T/C [7]: 39.1%
viability, T/C [8]: 21.1%
viability, T/C [9]: 7.93%
viability, T/C [10]: 3.53%
viability, T/C [41]: 18.2%
viability, T/C [42]: 17.8%
viability, T/C [13]: 13.5%
viability, T/C [14]: 5.02%
viability, T/C [15]: 1.56%
viability, T/C [16]: 2.33%
viability, T/C [43]: 0.86%
viability, T/C [44]: 0.17%
viability, T/C [19]: 1.6%
viability, T/C [20]: 0.24%
viability, T/C [21]: 0.5%
viability, T/C [22]: 1.14%
viability, T/C [45]: 0.22%
viability, T/C [46]: 1%
viability, T/C [25]: 0.2%
viability, T/C [26]: 0.12%
viability, T/C [27]: 1.33%
viability, T/C [28]: 2.74%
viability, T/C [47]: 0.22%
viability, T/C [48]: 1.67%
viability, T/C [31]: 0.18%
viability, T/C [32]: 0.17%
viability, T/C [33]: 1.26%
viability, T/C [34]: 0.19%

Cn1ncnc1[C@H]1c2n[nH]c(=O)c3cc(F)cc(c23)N[C@@H]1c1ccc(F)cc1 + CN1CCN(c2cc(C(=O)Nc3cc4cc(-c5cnn(C)c5)ccc4cn3)ccn2)CC1
IC50 (second compound 0.0316 µM): > 0.1 µM
IC50 (second compound 0.1 µM): > 0.1 µM
IC50 (second compound 0.316 µM): < 0.000316 µM
IC50 (second compound 1 µM): < 0.000316 µM
IC50 (second compound 3.16 µM): < 0.000316 µM
IC50 (second compound 10 µM): < 0.000316 µM
viability, T/C (second compound 0.0316 µM, first compound 0.000316 µM): 100%
viability, T/C (second compound 0.0316 µM, first compound 0.001 µM): 76.1%
viability, T/C [37]: 91.5%
viability, T/C [38]: 82.1%
viability, T/C [1]: 135%
viability, T/C [2]: 102%
viability, T/C (second compound 0.1 µM, first compound 0.000316 µM): 86.2%
viability, T/C (second compound 0.1 µM, first compound 0.001 µM): 84.3%
viability, T/C [39]: 111%
viability, T/C [40]: 112%
viability, T/C [7]: 110%
viability, T/C [8]: 90.9%
viability, T/C (second compound 0.316 µM, first compound 0.000316 µM): 16.9%
viability, T/C (second compound 0.316 µM, first compound 0.001 µM): 24%
viability, T/C [41]: 20.2%
viability, T/C [42]: 21.3%
viability, T/C [13]: 21.5%
viability, T/C [14]: 19.5%
viability, T/C (second compound 1 µM, first compound 0.000316 µM): 0.16%
viability, T/C (second compound 1 µM, first compound 0.001 µM): 0.26%
viability, T/C [43]: 1.61%
viability, T/C [44]: 0.19%
viability, T/C [19]: 1.31%
viability, T/C [20]: 0.83%
viability, T/C (second compound 3.16 µM, first compound 0.000316 µM): 0.42%
viability, T/C (second compound 3.16 µM, first compound 0.001 µM): 0.22%
viability, T/C [45]: 2.43%
viability, T/C [46]: 0.14%
viability, T/C [25]: 1.43%
viability, T/C [26]: 2.75%
viability, T/C (second compound 10 µM, first compound 0.000316 µM): 0.15%
viability, T/C (second compound 10 µM, first compound 0.001 µM): 1.85%
viability, T/C [47]: 1.09%
viability, T/C [48]: 1.69%
viability, T/C [31]: 0.53%
viability, T/C [32]: 1.35%

Nc1ccn(C2OC(CO)C(O)C2(F)F)c(=O)n1 (stereo not given) + CN1CCN(c2cc(C(=O)Nc3cc4cc(-c5cnn(C)c5)ccc4cn3)ccn2)CC1
IC50 (second compound 0.0316 µM): 0.192 µM
IC50 (second compound 0.1 µM): 0.242 µM
IC50 (second compound 0.316 µM): < 0.0316 µM
IC50 (second compound 1 µM): < 0.0316 µM
IC50 (second compound 3.16 µM): < 0.0316 µM
IC50 (second compound 10 µM): < 0.0316 µM
viability, T/C [1]: 93.3%
viability, T/C [2]: 62.8%
viability, T/C [3]: 40.7%
viability, T/C [4]: 33.8%
viability, T/C [5]: 38%
viability, T/C [6]: 38.3%
viability, T/C [7]: 112%
viability, T/C [8]: 74.6%
viability, T/C [9]: 42.3%
viability, T/C [10]: 32.8%
viability, T/C [11]: 30.2%
viability, T/C [12]: 29.7%
viability, T/C [13]: 18%
viability, T/C [14]: 21.2%
viability, T/C [15]: 20.4%
viability, T/C [16]: 19%
viability, T/C [17]: 16.7%
viability, T/C [18]: 17.5%
viability, T/C [19]: 0.16%
viability, T/C [20]: 0.19%
viability, T/C [21]: 0.2%
viability, T/C [22]: 0.11%
viability, T/C [23]: 1.16%
viability, T/C [24]: 1.27%
viability, T/C [25]: 0.18%
viability, T/C [26]: 2.52%
viability, T/C [27]: 0.18%
viability, T/C [28]: 0.15%
viability, T/C [29]: 0.92%
viability, T/C [30]: 1.45%
viability, T/C [31]: 0.18%
viability, T/C [32]: 1.54%
viability, T/C [33]: 0.18%
viability, T/C [34]: 0.17%
viability, T/C [35]: 2.1%
viability, T/C [36]: 4.24%

O=c1[nH]cc(F)c(=O)[nH]1 + CN1CCN(c2cc(C(=O)Nc3cc4cc(-c5cnn(C)c5)ccc4cn3)ccn2)CC1
IC50 (second compound 0.0316 µM): > 10 µM
IC50 (second compound 0.1 µM): > 10 µM
IC50 (second compound 0.316 µM): < 0.0316 µM
IC50 (second compound 1 µM): < 0.0316 µM
IC50 (second compound 3.16 µM): < 0.0316 µM
IC50 (second compound 10 µM): < 0.0316 µM
viability, T/C [1]: 95.6%
viability, T/C [2]: 77.4%
viability, T/C [3]: 105%
viability, T/C [4]: 106%
viability, T/C [5]: 123%
viability, T/C [6]: 113%
viability, T/C [7]: 90.5%
viability, T/C [8]: 83.1%
viability, T/C [9]: 101%
viability, T/C [10]: 130%
viability, T/C [11]: 171%
viability, T/C [12]: 120%
viability, T/C [13]: 16.8%
viability, T/C [14]: 18.7%
viability, T/C [15]: 22.1%
viability, T/C [16]: 22.7%
viability, T/C [17]: 19.2%
viability, T/C [18]: 17.1%
viability, T/C [19]: 0.2%
viability, T/C [20]: 0.42%
viability, T/C [21]: 0.17%
viability, T/C [22]: 0.16%
viability, T/C [23]: 1.57%
viability, T/C [24]: 0.22%
viability, T/C [25]: 0.2%
viability, T/C [26]: 0.14%
viability, T/C [27]: 1.23%
viability, T/C [28]: 0.14%
viability, T/C [29]: 1.73%
viability, T/C [30]: 1.38%
viability, T/C [31]: 0.13%
viability, T/C [32]: 0.29%
viability, T/C [33]: 0.25%
viability, T/C [34]: 0.15%
viability, T/C [35]: 0.19%
viability, T/C [36]: 1.01%
